Measured values as given in ChEMBL document CHEMBL3112491, “3-(5-)-Amino-o-diarylisoxazoles: regioselective synthesis and antitubulin activity” (2014).

Assays:
Format in all cases: functional
BT-549 = assay: Growth inhibition of human BT549 cells after 48 hrs by sulforhodamine B assay; details: BT-549, 48 h
Paracentrotus lividus [1] = assay: Antimitotic activity in sea urchin fertilized egg assessed as cleavage arrest treated at 8 to 20 mins post-fertilization measured at 2.5 to 5.5 hrs post-fertilization
Malme-3M = assay: Growth inhibition of human MALME-3M cells after 48 hrs by sulforhodamine B assay
A498 = assay: Growth inhibition of human A498 cells after 48 hrs by sulforhodamine B assay; details: A498, 48 h
M14 = assay: Growth inhibition of human M14 cells after 48 hrs by sulforhodamine B assay; details: M14, 48 h
[2] = Growth inhibition of human Hs 578T cells after 48 hrs by sulforhodamine B assay
SNB-19 = assay: Growth inhibition of human SNB19 cells after 48 hrs by sulforhodamine B assay; details: SNB-19, 48 h
NCI-H460 = assay: Growth inhibition of human NCI-H460 cells after 48 hrs by sulforhodamine B assay; details: NCI-H460, 48 h
SW-620 = assay: Growth inhibition of human SW620 cells after 48 hrs by sulforhodamine B assay; details: SW-620, 48 h
SR = assay: Growth inhibition of human SR cells after 48 hrs by sulforhodamine B assay
[3] = Growth inhibition of human NCI-ADR-RES cells after 48 hrs by sulforhodamine B assay
SK-MEL-5 = assay: Growth inhibition of human SK-MEL-5 cells after 48 hrs by sulforhodamine B assay; details: SK-MEL-5, 48 h
MDA-MB-231 = assay: Growth inhibition of human MDA-MB-231 cells after 48 hrs by sulforhodamine B assay; details: MDA-MB-231, 48 h
HCT-15 = assay: Growth inhibition of human HCT15 cells after 48 hrs by sulforhodamine B assay; details: HCT-15, 48 h
SK-OV-3 = assay: Growth inhibition of human SKOV3 cells after 48 hrs by sulforhodamine B assay; details: SK-OV-3, 48 h
[4] = Growth inhibition of human OVCAR4 cells after 48 hrs by sulforhodamine B assay; details: OVCAR-4, 48 h
TK-10 = assay: Growth inhibition of human TK10 cells after 48 hrs by sulforhodamine B assay; details: TK-10, 48 h
ACHN = assay: Growth inhibition of human ACHN cells after 48 hrs by sulforhodamine B assay
MCF7 = assay: Growth inhibition of human MCF7 cells after 48 hrs by sulforhodamine B assay; details: MCF7, 48 h
OVCAR-3 = assay: Growth inhibition of human OVCAR3 cells after 48 hrs by sulforhodamine B assay; details: OVCAR-3, 48 h
MOLT-4 = assay: Growth inhibition of human MOLT4 cells after 48 hrs by sulforhodamine B assay; details: MOLT-4, 48 h
DU-145 = assay: Growth inhibition of human DU145 cells after 48 hrs by sulforhodamine B assay; details: DU-145, 48 h
MDA-MB-468 = assay: Growth inhibition of human MDA-MB-468 cells after 48 hrs by sulforhodamine B assay; details: MDA-MB-468, 48 h
NCI-H322M = assay: Growth inhibition of human NCI-H322M cells after 48 hrs by sulforhodamine B assay
SN12C = assay: Growth inhibition of human SN12C cells after 48 hrs by sulforhodamine B assay
KM12 = assay: Growth inhibition of human KM12 cells after 48 hrs by sulforhodamine B assay; details: KM12, 48 h
MDA-MB-435 = assay: Growth inhibition of human MDA-MB-435 cells after 48 hrs by sulforhodamine B assay; details: MDA-MB-435, 48 h
HOP-62 = assay: Growth inhibition of human HOP62 cells after 48 hrs by sulforhodamine B assay; details: HOP-62, 48 h
SF-268 = assay: Growth inhibition of human SF268 cells after 48 hrs by sulforhodamine B assay; details: SF-268, 48 h
NCI-H226 = assay: Growth inhibition of human NCI-H226 cells after 48 hrs by sulforhodamine B assay; details: NCI-H226, 48 h
786-0 = assay: Growth inhibition of human 786-0 cells after 48 hrs by sulforhodamine B assay; details: 786-0, 48 h
COLO 205 = assay: Growth inhibition of human COLO205 cells after 48 hrs by sulforhodamine B assay; details: COLO 205, 48 h
SF-295 = assay: Growth inhibition of human SF295 cells after 48 hrs by sulforhodamine B assay; details: SF-295, 48 h
[5] = Growth inhibition of human SF539 cells after 48 hrs by sulforhodamine B assay; details: SF-539, 48 h
LOX IMVI = assay: Growth inhibition of human LOXIMVI cells after 48 hrs by sulforhodamine B assay
HT-29 = assay: Growth inhibition of human HT-29 cells after 48 hrs by sulforhodamine B assay; details: HT-29, 48 h
A549 = assay: Growth inhibition of human A549/ATCC cells after 48 hrs by sulforhodamine B assay; details: A549, 48 h
UACC-62 = assay: Growth inhibition of human UACC62 cells after 48 hrs by sulforhodamine B assay; details: UACC-62, 48 h
NCI-H23 = assay: Growth inhibition of human NCI-H23 cells after 48 hrs by sulforhodamine B assay; details: NCI-H23, 48 h
NCI-H522 = assay: Growth inhibition of human NCI-H522 cells after 48 hrs by sulforhodamine B assay; details: NCI-H522, 48 h
SK-MEL-2 = assay: Growth inhibition of human SK-MEL-2 cells after 48 hrs by sulforhodamine B assay; details: SK-MEL-2, 48 h
HCT-116 = assay: Growth inhibition of human HCT116 cells after 48 hrs by sulforhodamine B assay; details: HCT-116, 48 h
[6] = Growth inhibition of human OVCAR5 cells after 48 hrs by sulforhodamine B assay; details: OVCAR-5, 48 h
[7] = Growth inhibition of human UO31 cells after 48 hrs by sulforhodamine B assay; details: UO-31, 48 h
HL-60(TB) = assay: Growth inhibition of human HL-60(TB) cells after 48 hrs by sulforhodamine B assay; details: HL-60, 48 h
[8] = Growth inhibition of human HCC2998 cells after 48 hrs by sulforhodamine B assay; details: HCC 2998, 48 h
[9] = Growth inhibition of human HOP92 cells after 48 hrs by sulforhodamine B assay; details: HOP-92, 48 h
IGROV-1 = assay: Growth inhibition of human IGROV1 cells after 48 hrs by sulforhodamine B assay; details: IGROV-1, 48 h
[10] = Growth inhibition of human EKVX cells after 48 hrs by sulforhodamine B assay
Paracentrotus lividus [11] = assay: Antimitotic activity in sea urchin fertilized egg assessed as cleavage alteration treated at 8 to 20 mins post-fertilization measured at 2.5 to 5.5 hrs post-fertilization
PC-3 = assay: Growth inhibition of human PC3 cells after 48 hrs by sulforhodamine B assay; details: PC-3, 48 h
[12] = Growth inhibition of human UACC257 cells after 48 hrs by sulforhodamine B assay; details: UACC-257, 48 h
OVCAR-8 = assay: Growth inhibition of human OVCAR8 cells after 48 hrs by sulforhodamine B assay; details: OVCAR-8, 48 h
Paracentrotus lividus [13] = assay: Microtubule destabilizing activity in sea urchin free-swimming blastula assessed as embryo spinning treated at 9 to 10 hrs post-fertilization measured after 0.15 to 15 hrs
U-251 = assay: Growth inhibition of human U251 cells after 48 hrs by sulforhodamine B assay; details: U-251, 48 h
SNB-75 = assay: Growth inhibition of human SNB75 cells after 48 hrs by sulforhodamine B assay; details: SNB-75, 48 h
[14] = Growth inhibition of human RXF393 cells after 48 hrs by sulforhodamine B assay; details: RXF 393, 48 h
RPMI-8226 = assay: Growth inhibition of human RPMI8226 cells after 48 hrs by sulforhodamine B assay; details: RPMI-8226, 48 h
CCRF-CEM = assay: Growth inhibition of human CCRF-CEM cells after 48 hrs by sulforhodamine B assay
SK-MEL-28 = assay: Growth inhibition of human SK-MEL-28 cells after 48 hrs by sulforhodamine B assay; details: SK-MEL-28, 48 h
CAKI-1 = assay: Growth inhibition of human CAKI-1 cells after 48 hrs by sulforhodamine B assay; details: CAKI-1, 48 h
T47D = assay: Growth inhibition of human T47D cells after 48 hrs by sulforhodamine B assay

SMILES: COc1ccc(-c2c(-c3cc(OC)c(OC)c(OC)c3)noc2N)cc1
- GI50 (BT-549): 19.3 nM
- EC (Paracentrotus lividus [1]): 0.005 µM
- GI50 (Malme-3M): 13400 nM
- GI50 (A498): < 10 nM
- GI50 (M14): < 10 nM
- GI50 [2]: < 10 nM
- GI50 (SNB-19): 25.1 nM
- GI50 (NCI-H460): < 10 nM
- GI50 (SW-620): < 10 nM
- GI50 (SR): < 10 nM
- GI50 [3]: < 10 nM
- GI50 (SK-MEL-5): < 10 nM
- GI50 (MDA-MB-231): 31.9 nM
- GI50 (HCT-15): < 10 nM
- GI50 (SK-OV-3): < 10 nM
- GI50 [4]: 14.5 nM
- GI50 (TK-10): 10500 nM
- GI50 (ACHN): < 10 nM
- GI50 (MCF7): < 10 nM
- GI50 (OVCAR-3): < 10 nM
- GI50 (MOLT-4): 27.4 nM
- GI50 (DU-145): 13.5 nM
- GI50 (MDA-MB-468): < 10 nM
- GI50 (NCI-H322M): 56.7 nM
- GI50 (SN12C): 32.8 nM
- GI50 (KM12): < 10 nM
- GI50 (MDA-MB-435): < 10 nM
- GI50 (HOP-62): 14.4 nM
- GI50 (SF-268): < 10 nM
- GI50 (NCI-H226): 24.4 nM
- GI50 (786-0): < 10 nM
- GI50 (COLO 205): < 10 nM
- GI50 (SF-295): < 10 nM
- GI50 [5]: < 10 nM
- GI50 (LOX IMVI): < 10 nM
- GI50 (HT-29): < 10 nM
- GI50 (A549): < 10 nM
- GI50 (UACC-62): < 10 nM
- GI50 (NCI-H23): 14.9 nM
- GI50 (NCI-H522): < 10 nM
- GI50 (SK-MEL-2): 18.8 nM
- GI50 (HCT-116): < 10 nM
- GI50 [6]: 46.6 nM
- GI50 [7]: < 10 nM
- GI50 (HL-60(TB)): < 10 nM
- GI50 [8]: 15.1 nM
- GI50 [9]: < 10 nM
- GI50 (IGROV-1): 10.6 nM
- GI50 [10]: 15200 nM
- EC (Paracentrotus lividus [11]): 0.002 µM
- GI50 (PC-3): < 10 nM
- GI50 [12]: < 10 nM
- GI50 (OVCAR-8): 13.9 nM
- EC (Paracentrotus lividus [13]): 0.5 µM
- GI50 (U-251): < 10 nM
- GI50 (SNB-75): < 10 nM

SMILES: COc1ccc(-c2c(-c3cc(OC)c4c(c3)OCCO4)noc2N)cc1
- GI50 (BT-549): 28.5 nM
- EC (Paracentrotus lividus [1]): 0.01 µM
- GI50 (Malme-3M): 23600 nM
- GI50 (A498): < 10 nM
- GI50 (M14): < 10 nM
- GI50 [2]: < 10 nM
- GI50 (SNB-19): 26.9 nM
- GI50 (NCI-H460): < 10 nM
- GI50 [14]: < 10 nM
- GI50 (RPMI-8226): 33.8 nM
- GI50 (CCRF-CEM): 15.5 nM
- GI50 (SW-620): < 10 nM
- GI50 (SR): < 10 nM
- GI50 [3]: < 10 nM
- GI50 (SK-MEL-5): < 10 nM
- GI50 (SK-MEL-28): 17 nM
- GI50 (MDA-MB-231): 73.4 nM
- GI50 (HCT-15): < 10 nM
- GI50 (SK-OV-3): < 10 nM
- GI50 [4]: 78.7 nM
- GI50 (TK-10): 15.8 nM
- GI50 (ACHN): 12.2 nM
- GI50 (MCF7): < 10 nM
- GI50 (OVCAR-3): < 10 nM
- GI50 (MOLT-4): 39.8 nM
- GI50 (DU-145): 32 nM
- GI50 (MDA-MB-468): 12.2 nM
- GI50 (NCI-H322M): 25400 nM
- GI50 (SN12C): 31.8 nM
- GI50 (KM12): < 10 nM
- GI50 (MDA-MB-435): < 10 nM
- GI50 (HOP-62): < 10 nM
- GI50 (SF-268): 30 nM
- GI50 (NCI-H226): 27.7 nM
- GI50 (786-0): 14.5 nM
- GI50 (COLO 205): < 10 nM
- GI50 (SF-295): < 10 nM
- GI50 (CAKI-1): < 10 nM
- GI50 [5]: 13 nM
- GI50 (LOX IMVI): 11.2 nM
- GI50 (HT-29): < 10 nM
- GI50 (A549): 10.1 nM
- GI50 (UACC-62): < 10 nM
- GI50 (NCI-H23): 1.95 nM
- GI50 (NCI-H522): < 10 nM
- GI50 (SK-MEL-2): < 10 nM
- GI50 (HCT-116): < 10 nM
- GI50 [6]: 50.5 nM
- GI50 [7]: 57.8 nM
- GI50 (HL-60(TB)): 10.4 nM
- GI50 [8]: 20.1 nM
- GI50 [9]: 446 nM
- GI50 (IGROV-1): 13.6 nM
- GI50 [10]: 35.3 nM
- GI50 (T47D): 27.2 nM
- EC (Paracentrotus lividus [11]): 0.002 µM
- GI50 (PC-3): 24.8 nM
- GI50 (OVCAR-8): 21.5 nM
- EC (Paracentrotus lividus [13]): 0.1 µM
- GI50 (U-251): 14.8 nM
